Data from ChEMBL document CHEMBL6078617, “Discovery of MK-1084: An Orally Bioavailable and Low-Dose KRASG12C Inhibitor” (J Med Chem, 2024).
pIC50: −log10 of the molar value. Calls of active or inactive are those of the source. No cut-off for these calls is given here.

Key:
[1] = Oral bioavailability in fasted Wistar-Han rat measured up to 24 hrs by LC-MS/MS analysis; format: ADME, organism-based; settings: in vivo
[2] = Unbound plasma clearance in fasted Wistar-Han rat measured up to 24 hrs by LC-MS/MS analysis; format: ADME
GTPase KRas [3] = target: T1, GTPase KRas (Homo sapiens, UniProt P01116, G12C); assay: Inhibition of KRAS G12C mutant in human NCI-H358 cells assessed as reduction in Erk1/2 phosphorylation level measured for 8 hrs by Western blot analysis; format: cell-based
T1 sequence (P01116 whole entry G12C): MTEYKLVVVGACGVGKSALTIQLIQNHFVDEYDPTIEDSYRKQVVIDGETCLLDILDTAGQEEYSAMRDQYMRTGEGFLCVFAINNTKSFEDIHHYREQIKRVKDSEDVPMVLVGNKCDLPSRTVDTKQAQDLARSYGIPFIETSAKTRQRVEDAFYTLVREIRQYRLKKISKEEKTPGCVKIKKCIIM

[4] = MRT in fasted Wistar-Han rat measured up to 24 hrs by LC-MS/MS analysis; format: ADME; settings: in vivo
GTPase KRas [5] = target: T1, GTPase KRas; assay: Inhibition of recombinant biotinylated KRAS G12C mutant (unknown origin) assessed as human SOS catalyzed nucleotide exchange measured after 60 mins by TR-FRET based guanine nucleotide exchange assay
[6] = Plasma clearance in fasted Wistar-Han rat measured up to 24 hrs by LC-MS/MS analysis; format: ADME
[7] = Apparent permeability in MDCK-II cells; format: ADME, cell-based, Canis lupus familiaris; settings: dog
[8] = Oral bioavailability in male Beagle dog measured up to 24 hrs by LC-MS/MS analysis; format: ADME, organism-based, Canis lupus familiaris; settings: in vivo
[9] = Plasma clearance in male Beagle dog measured up to 24 hrs by LC-MS/MS analysis; format: ADME, Canis lupus familiaris
[10] = MRT in male Beagle dog measured up to 24 hrs by LC-MS/MS analysis; format: ADME, Canis lupus familiaris; settings: in vivo
[11] = Unbound plasma clearance in male Beagle dog measured up to 24 hrs by LC-MS/MS analysis; format: ADME, Canis lupus familiaris
MIA PaCa-2 = assay: In vivo antitumor activity against […] cells xenografted in rat model assessed as decrease in tumor volume at 30 mg/kg, po qd measured up to 21 days; format: functional, organism-based; settings: Homo sapiens, time <= 21.0 day
PDX LU2529 = assay: In vivo antitumor activity against patient-derived PDX LU2529 cells xenografted in rat model assessed as decrease in tumor volume at 30 mg/kg, po qd measured up to 21 days; format: functional, organism-based; settings: Homo sapiens, time <= 21.0 day
PDX LU2512 = assay: In vivo antitumor activity against patient-derived PDX LU2512 cells xenografted in rat model assessed as decrease in tumor volume at 30 mg/kg, po qd measured up to 21 days; format: functional, organism-based; settings: Homo sapiens, time <= 21.0 day
[12] = Oral bioavailability in fasted Wistar-Han rat measured up to 24 hrs pre-dosed with ABT by LC-MS/MS analysis; format: ADME, organism-based; settings: in vivo

| SMILES | bioavailability [1] | CL free [2] | pIC50 (GTPase KRas [3]) | MRT [4] | pIC50 (GTPase KRas [5]) | clearance [6] | Papp [7] | bioavailability [8] | clearance [9] | MRT [10] | CL free [11] | bioavailability [12] | Activity (MIA PaCa-2) | Activity (PDX LU2529) | Activity (PDX LU2512) |
| --- | --- | --- | --- | --- | --- | --- | --- | --- | --- | --- | --- | --- | --- | --- | --- |
| C=CC(=O)N1C[C@H](C)N(c2nc(=O)n3c4nc(c(F)cc24)-c2c(F)cccc2OCC(F)(F)CCc2ccnc(C(C)C)c2-3)C[C@H]1C | 12% | 113 mL/min/kg | 8.18 | 2.3 h | 8.54 | 9.7 mL/min/kg | 23 ×10⁻⁶ cm/s | 59% | 18 mL/min/kg | 2.2 h | 160 mL/min/kg | – | – | – | – |
| C=CC(=O)N1CCN(c2nc(=O)n3c4nc(c(F)cc24)-c2c(F)cccc2OCCCc2ccnc(C(C)C)c2-3)[C@@H](C)C1 | – | – | 8.27 | – | 8.37 | – | – | – | – | – | – | – | – | – | – |
| C=CC(=O)N1C[C@H](C)N(c2nc(=O)n3c4nc(c(F)cc24)-c2c(F)cc(F)cc2OCC(F)(F)CCc2ccnc(C(C)C)c2-3)C[C@H]1C | 53% | 270 mL/min/kg | 8.05 | 2.6 h | 8.96 | 10 mL/min/kg | 31 ×10⁻⁶ cm/s | 76% | 9.7 mL/min/kg | 2.5 h | 194 mL/min/kg | – | – | – | – |
| C=CC(=O)N1C[C@H](C)N(c2nc(=O)n3c4nc(c(Cl)cc24)-c2c(F)ccc(F)c2OCCOc2ccnc(C(C)C)c2-3)C[C@H]1C | 61% | 606 mL/min/kg | 8.05 | 1.1 h | 8.92 | 22 mL/min/kg | 20 ×10⁻⁶ cm/s | 58% | 28 mL/min/kg | 1.1 h | 243 mL/min/kg | – | Active | Active | Active |
| C=CC(=O)N1C[C@H](C)N(c2nc(=O)n3c4nc(c(F)cc24)-c2c(ccc(F)c2F)OCCOc2ccnc(C(C)C)c2-3)C[C@H]1C | 10% | 434 mL/min/kg | 8.00 | 0.7 h | 8.28 | 26 mL/min/kg | 9 ×10⁻⁶ cm/s | – | – | – | – | – | – | – | – |
| C=CC(=O)N1C[C@H](C)N(c2nc(=O)n3c4nc(c(F)cc24)-c2c(F)ccc(F)c2OCCOc2ccnc(C(C)C)c2-3)C[C@H]1C | 25% | 126 mL/min/kg | 7.55 | 1.4 h | 8.46 | 13 mL/min/kg | 15 ×10⁻⁶ cm/s | 67% | 32 mL/min/kg | 0.8 h | 130 mL/min/kg | – | – | – | – |
| C=CC(=O)N1C[C@H](C)N(c2nc(=O)n3c4nc(c(F)cc24)-c2c(ccc(F)c2F)OCC(F)(F)CCc2ccnc(C(C)C)c2-3)C[C@H]1C | 42% | 213 mL/min/kg | 8.28 | 1.8 h | 8.52 | 13 mL/min/kg | 25 ×10⁻⁶ cm/s | 80% | 7.3 mL/min/kg | 3.3 h | 128 mL/min/kg | – | – | – | – |
| C=CC(=O)N1C[C@H](C)N(c2nc(=O)n3c4nc(c(F)cc24)-c2c(F)cccc2OCCCc2ccnc(C(C)C)c2-3)C[C@H]1C | – | – | 8.13 | – | 8.77 | – | – | – | – | – | – | – | – | – | – |

Further compounds by rising pIC50 (GTPase KRas [3]), results first:

| bioavailability [1] | CL free [2] | pIC50 (GTPase KRas [3]) | MRT [4] | pIC50 (GTPase KRas [5]) | clearance [6] | Papp [7] | bioavailability [8] | clearance [9] | MRT [10] | CL free [11] | bioavailability [12] | SMILES | Activity (MIA PaCa-2) | Activity (PDX LU2529) | Activity (PDX LU2512) |
| --- | --- | --- | --- | --- | --- | --- | --- | --- | --- | --- | --- | --- | --- | --- | --- |
| – | – | 5.42 | – | 5.85 | – | – | – | – | – | – | – | C=CC(=O)N1CCN(c2nc(=O)n3c4nc(c(Cl)cc24)-c2c(F)cccc2OCCc2ccccc2-3)[C@@H](C)C1 | – | – | – |
| 17% | 148 mL/min/kg | 7.52 | 0.9 h | 8.35 | 12 mL/min/kg | 13 ×10⁻⁶ cm/s | – | – | – | – | – | C=CC(=O)N1C[C@H](C)N(c2nc(=O)n3c4nc(c(C)cc24)-c2c(F)ccc(F)c2OCCOc2ccnc(C(C)C)c2-3)C[C@H]1C | – | – | – |
| – | – | 7.68 | – | 7.96 | – | – | – | – | – | – | – | C=CC(=O)N1CCN(c2nc(=O)n3c4nc(c(F)cc24)-c2c(F)cccc2OCCCOc2ccnc(C(C)C)c2-3)[C@@H](C)C1 | – | – | – |
| 12% | 407 mL/min/kg | 7.80 | 0.7 h | 8.16 | 40 mL/min/kg | – | – | – | – | – | – | C=CC(=O)N1C[C@H](C)N(c2nc(=O)n3c4nc(c(F)cc24)-c2c(F)cc(F)cc2OCCOc2ccnc(C(C)C)c2-3)C[C@H]1C | – | – | – |
| 5% | 299 mL/min/kg | 7.96 | 0.6 h | 8.19 | 49 mL/min/kg | 8 ×10⁻⁶ cm/s | – | – | – | – | 11% | C=CC(=O)N1C[C@H](C)N(c2nc(=O)n3c4nc(c(F)cc24)-c2c(F)cccc2OCCOc2ccnc(C(C)C)c2-3)C[C@H]1C | – | – | – |
| 2% | 770 mL/min/kg | 8.32 | 0.4 h | 8.92 | 80 mL/min/kg | 17 ×10⁻⁶ cm/s | – | – | – | – | 50% | C=CC(=O)N1CCN(c2nc(=O)n3c4nc(c(F)cc24)-c2c(F)cccc2OCCCCc2ccnc(C(C)C)c2-3)[C@@H](C)C1 | – | – | – |
